This note sets out measurements from patent US20170333591A9, “ABSORBENT ARTICLE COMPRISING MALODOR REDUCTION COMPOSITIONS” (The Procter & Gamble Company, priority 2014, published 2017).

The nature of the first data set: Log of liquid dish neat product liquid-air partition coefficient. In kind it is physicochemical.
Details: not given
Turning to `CC(=O)OC(C)c1ccccc1` (stereo not shown) [Material 1041], the “Comment Code: Log of liquid dish neat product liquid-air partition coefficient” value (shortened to “Comment Code: Log”) is on record as “K (Log of liquid dish neat product liquid-air partition coefficient greater than or equal to 7)”.
Regarding `CC1=C2CC(C(C)(C)O)CCC2(C)CCC1` (stereo not shown) [Material 872], the “Comment Code: Log” value is listed as “K (Log of liquid dish neat product liquid-air partition coefficient greater than or equal to 7)”.
The same measure, in the same setting: for `C=CC1(C)Cc2occ(C)c2CC1C(=C)C` (stereo not shown) [Material 488] the value was “K (Log of liquid dish neat product liquid-air partition coefficient greater than or equal to 7)”.
`CC(C)C(=O)OC1CC2CC1C1C=CCC21` (stereo not shown) [Material 487]: the “Comment Code: Log” value is given as “K (Log of liquid dish neat product liquid-air partition coefficient greater than or equal to 7)”.
For the compound `C=CC(C)(C#N)Cc1ccccc1` (stereo not shown) [Material 504], the “Comment Code: Log” value is listed as “K (Log of liquid dish neat product liquid-air partition coefficient greater than or equal to 7)”.
As to `CCOC(=O)OC1CCCCC1C(C)(C)C` (stereo not shown) [Material 355], the “Comment Code: Log” value is given as “K (Log of liquid dish neat product liquid-air partition coefficient greater than or equal to 7)”.
Same read-out and setting: for `CC(=O)OCCc1ccccc1` [Material 832] the value was “K (Log of liquid dish neat product liquid-air partition coefficient greater than or equal to 7)”; for `CC(C)(C)c1ccc(CC=O)cc1` [Material 994], “K (Log of liquid dish neat product liquid-air partition coefficient greater than or equal to 7)”.

Still in this data set, the particulars now being: code letter within the Comment Code cell.
`OCCCc1ccccc1` [Material 254]: the “Log of liquid dish neat product liquid-air partition coefficient (Comment Code K/L)” value (“Log … (Comment Code K/L)” for short) is on record as “K (Log of liquid dish neat product liquid-air partition coefficient greater than or equal to 7)”.
The same measure, in the same setting: the result for `C=CCCCCCCCCC(=O)OCCC(C)C` [Material 234] reads “K (Log of liquid dish neat product liquid-air partition coefficient greater than or equal to 7)”; that for `CC1(C)CCCC2=C1CC(C=O)CC2` (stereo not shown) [Material 486], “K (Log of liquid dish neat product liquid-air partition coefficient greater than or equal to 7)”; that for `C=CC1(C)Cc2occ(C)c2CC1C(=C)C` (stereo not shown) [Material 488], “K (Log of liquid dish neat product liquid-air partition coefficient greater than or equal to 7)”.
On to `CC(=O)OCC=C(C)CCC=C(C)CCC=C(C)C` [Material 368], for which the “Log … (Comment Code K/L)” value is on record as “K (Log of liquid dish neat product liquid-air partition coefficient greater than or equal to 7)”.
Same read-out and setting: the result for `CC1=C(CCC(C)C=O)C(C)(C)CCC1` (stereo not shown) [Material 560] reads “K (Log of liquid dish neat product liquid-air partition coefficient greater than or equal to 7)”; that for `CCOC(C)OC1CCCCCCCCCCC1` (stereo not shown) [Material 363], “K (Log of liquid dish neat product liquid-air partition coefficient greater than or equal to 7)”; that for `CC(C)C(=O)OC1CC2CC1C1C=CCC21` (stereo not shown) [Material 487], “K (Log of liquid dish neat product liquid-air partition coefficient greater than or equal to 7)”.
Regarding `CC=Cc1ccc(OC)c(OC)c1` [Material 108], the “Log … (Comment Code K/L)” value is recorded as “K (Log of liquid dish neat product liquid-air partition coefficient greater than or equal to 7)”.
As to `C=CCc1cc(OC)c2c(c1)OCO2` [Material 37], the “Log … (Comment Code K/L)” value is listed as “K (Log of liquid dish neat product liquid-air partition coefficient greater than or equal to 7)”.
The same measure, in the same setting: the result for `Cc1ccc2c(c1)OCC(=O)CO2` [Material 17] reads “K (Log of liquid dish neat product liquid-air partition coefficient greater than or equal to 7)”.
The same measure, in the same setting: for `CCCCCCCCCCCC(=O)OCC` [Material 391] the value was “K (Log of liquid dish neat product liquid-air partition coefficient greater than or equal to 7)”.
On the same count and under the same terms, for `CC(C)=CCCC1=CCC(C=O)CC1` (stereo not shown) [Material 211] the value was “K (Log of liquid dish neat product liquid-air partition coefficient greater than or equal to 7)”; for `CC1CCCCCCCCCCCCC(=O)C1` (stereo not shown) [Material 79], “K (Log of liquid dish neat product liquid-air partition coefficient greater than or equal to 7)”; for `CC(C=O)Cc1ccc(C(C)C)cc1` (stereo not shown) [Material 478], “K (Log of liquid dish neat product liquid-air partition coefficient greater than or equal to 7)”.
As for `CCOC(=O)C1OC1(C)c1ccccc1` (stereo not shown) [Material 377], the “Log … (Comment Code K/L)” value was “K (Log of liquid dish neat product liquid-air partition coefficient greater than or equal to 7)”.
`C=CC(C)=CCCC(C)(C)O` [Material 43]: the “Log … (Comment Code K/L)” value is recorded as “K (Log of liquid dish neat product liquid-air partition coefficient greater than or equal to 7)”.
The same measure, in the same setting: for `CCCCCCCCCC/C=C\C#N` [Material 11] the value was “K (Log of liquid dish neat product liquid-air partition coefficient greater than or equal to 7)”.

Still in this data set, the particulars now being: code letters K/L of the Comment Code.
On to `C=C(C)C1CCC2(C)CCC=C(C)C2C1` (stereo not shown) [Material 692], for which the “Log of liquid dish neat product liquid-air partition coefficient (Comment Code)” value (shortened to “Log … (Comment Code)”) was “K (Log of liquid dish neat product liquid-air partition coefficient greater than or equal to 7)”.
Turning to `CCC=CCC=CC=CC(=O)OCC` [Material 1000], the “Log … (Comment Code)” value is on record as “K (Log of liquid dish neat product liquid-air partition coefficient greater than or equal to 7)”.
On to `CC1=C2CC(C(C)(C)O)CCC2(C)CCC1` (stereo not shown) [Material 872], for which the “Log … (Comment Code)” value is reported as “K (Log of liquid dish neat product liquid-air partition coefficient greater than or equal to 7)”.
In the case of `C=CCCC(=O)C1=CCCC(C)(C)C1` [Material 697], the “Log … (Comment Code)” value is listed as “K (Log of liquid dish neat product liquid-air partition coefficient greater than or equal to 7)”.
Same read-out and setting: for `CCCCC/C=C/C=C\C(=O)OCC` [Material 951] the value was “K (Log of liquid dish neat product liquid-air partition coefficient greater than or equal to 7)”; for `CCC(=O)C=CC1C(C)=CCCC1(C)C` (stereo not shown) [Material 700], “K (Log of liquid dish neat product liquid-air partition coefficient greater than or equal to 7)”.
For the compound `CCC=CCC=CCCO` [Material 929], the “Log … (Comment Code)” value was “K (Log of liquid dish neat product liquid-air partition coefficient greater than or equal to 7)”.
Same read-out and setting: for `CC1=CC2C(C(C)C)CCC(C)(O)C2CC1` (stereo not shown) [Material 1046] the value was “K (Log of liquid dish neat product liquid-air partition coefficient greater than or equal to 7)”; for `CC(=O)OC(C)CCC=C(C)CCC=C(C)C` (stereo not shown) [Material 881], “K (Log of liquid dish neat product liquid-air partition coefficient greater than or equal to 7)”; for `CC(CC=O)CCc1ccccc1` (stereo not shown) [Material 807], “K (Log of liquid dish neat product liquid-air partition coefficient greater than or equal to 7)”.
The same measure, in the same setting: for `C=C1CCCC(C)(C)C1C=C(C)C(C)=O` (stereo not shown) [Material 913] the value was “K (Log of liquid dish neat product liquid-air partition coefficient greater than or equal to 7)”.
